Our source for the IC50 values is patent US9938258B2 (Karyopharm Therapeutics Inc., priority 2012, dated 2018).

The test system of experiment [1] is MS751 cells. As to the kind of experiment: MTT cell proliferation assay, MS751. It is filed as cell-based, human. The note with it: Homo sapiens. The method in brief: (§1)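 Seeding 5,000-10,000 cells/well, overnight attachment; 8 concs, 1 nM–30 μM. MTT ~4 h, formazan solubilized, OD 490 nm. % inhibition vs negative control, mostly duplicate, mean±SE.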
For orientation: Tetrazolium dyes change colour on reduction, which living cells bring about.

The test system of experiment [2] is Z138 cells. Briefly: MTT cell proliferation assay, Z138. Format: cell-based. To be noted: Homo sapiens. The method in brief: as §1
The test system of experiment [3] is 3T3 cells. Briefly: MTT cell proliferation assay, 3T3. Format: cell-based, mouse. The note with it: Mus musculus. The procedure, abridged: as §1
[4] abbreviates: MS751, MS751 cells, eight concentrations 1 nM to 30 μM, incubation approximately 64-72 hours, read-out: MTT Assay IC50, MS751.
Setting [5] is: Z-138, Z138 cells, eight concentrations 1 nM to 30 μM, incubation approximately 64-72 hours, read-out: MTT Assay IC50, Z138.
Setting [6] is: NIH3T3, 3T3 cells, eight concentrations 1 nM to 30 μM, incubation approximately 64-72 hours, read-out: MTT Assay IC50, 3T3.
Setting [7] is: MS751, MS751 cells, approximately 64-72 hours incubation, read-out: MTT Assay IC50, MS751.
[8] abbreviates: Z-138, Z138 cells, approximately 64-72 hours incubation, read-out: MTT Assay IC50, Z138.
The mark [9] stands for this setting: NIH3T3, 3T3 cells, approximately 64-72 hours incubation, read-out: MTT Assay IC50, 3T3.

Read-outs that look alike come from different tables or passages of the source.

As to `CCn1nccc1/C=C/C(=O)NCC1Cc2cc(-c3ccc(C(C)=O)s3)cc(Cl)c2O1` (stereo not drawn) [Compound 274, (E)-N-((5-(5-acetylthiophen-2-yl)-7-chloro-2,3-dihydrobenzofuran-2-yl)methyl)-3-(1-ethyl-1H-pyrazol-5-yl)acrylamide], the IC50 in experiment [1] (setting [4]) is 5 to 30 µM; in experiment [2] (setting [5]) it was 5 to 30 µM; in experiment [3] (setting [6]), more than 30 µM.

Regarding `Cc1cc(Cl)c2c(c1)CC(CNC(=O)/C=C/c1cccnc1)O2` (stereo not drawn) [Compound 275, (E)-N-((7-chloro-5-methyl-2,3-dihydrobenzofuran-2-yl)methyl)-3-(pyridin-3-yl)acrylamide], the IC50 in experiment [1] (setting [4]) is 5 to 30 µM; in experiment [2] (setting [5]) it was 5 to 30 µM; in experiment [3] (setting [6]), more than 30 µM.

Take `CC(=O)c1ccc(-c2cc(Cl)c3c(c2)CC(CNC(=O)/C=C/c2c(Cl)nc4sccn24)O3)s1` (stereo not drawn) [Compound 276, (E)-N-((5-(5-acetylthiophen-2-yl)-7-chloro-2,3-dihydrobenzofuran-2-yl)methyl)-3-(6-chloroimidazo[2,1-b]thiazol-5-yl)acrylamide]: the IC50 in experiment [1] (setting [4]), in experiment [2] (setting [5]) and in experiment [3] (setting [6]) was more than 30 µM throughout.

`CC(=O)c1ccc(-c2cc(Cl)c3c(c2)CC(CNC(=O)/C=C/c2cc(C)on2)O3)s1` (stereo not drawn) [Compound 277, (E)-N-((5-(5-acetylthiophen-2-yl)-7-chloro-2,3-dihydrobenzofuran-2-yl)methyl)-3-(5-methylisoxazol-3-yl)acrylamide]: the figures for the IC50 in experiment [1] (setting [4]), in experiment [2] (setting [5]) and in experiment [3] (setting [6]) were 0.1 to 5 µM, more than 30 µM and more than 30 µM, respectively.

For `CC(=O)c1ccc(-c2cc(Cl)c3c(c2)CC(CNC(=O)/C=C/c2ncc[nH]2)O3)s1` (stereo not drawn) [Compound 278, (E)-N-((5-(5-acetylthiophen-2-yl)-7-chloro-2,3-dihydrobenzofuran-2-yl)methyl)-3-(1H-imidazol-2-yl)acrylamide], the half-inhibitory concentration (IC50) in experiment [1] (setting [4]), in experiment [2] (setting [5]) and in experiment [3] (setting [6]) was more than 30 µM throughout.

Regarding `CC(=O)c1ccc(-c2cc(Cl)c3c(c2)CC(CNC(=O)/C=C/c2cccnn2)O3)s1` (stereo not drawn) [Compound 279, (E)-N-((5-(5-acetylthiophen-2-yl)-7-chloro-2,3-dihydrobenzofuran-2-yl)methyl)-3-(pyridazin-3-yl)acrylamide], the IC50 in experiment [1] (setting [4]), in experiment [2] (setting [5]) and in experiment [3] (setting [6]) was 0.1 to 5 µM in each case.

On to `CC(=O)c1ccc(-c2cc(Cl)c3c(c2)CC(CNC(=O)/C=C/c2cncc(C)c2)O3)s1` (stereo not drawn) [Compound 280, (E)-N-((5-(5-acetylthiophen-2-yl)-7-chloro-2,3-dihydrobenzofuran-2-yl)methyl)-3-(5-methylpyridin-3-yl)acrylamide], for which the figures for the IC50 in experiment [1] (setting [7]), in experiment [2] (setting [8]) and in experiment [3] (setting [9]) were 0.1 to 5 µM, 0.1 to 5 µM and more than 30 µM, respectively.

On to `CC(=O)c1ccc(-c2cc(Cl)c3c(c2)CC(CNC(=O)/C=C/c2csnn2)O3)s1` (stereo not drawn) [Compound 281, (E)-N-((5-(5-acetylthiophen-2-yl)-7-chloro-2,3-dihydrobenzofuran-2-yl)methyl)-3-(1,2,3-thiadizol-5-yl)acrylamide], for which the IC50 in experiment [1] (setting [7]), in experiment [2] (setting [8]) and in experiment [3] (setting [9]) was more than 30 µM in each case.

As to `CC(=O)c1ccc(-c2cc(Cl)c3c(c2)CC(CNC(=O)/C=C(/C)c2cccnc2)O3)s1` (stereo not drawn) [Compound 282, (Z)-N-((5-(5-Acetylthiophen-2-yl)-7-chloro-2,3-dihydrobenzofuran-2-yl)methyl)-3-(pyridin-3-yl)but-2-enamide], the IC50 in experiment [1] (setting [7]) was 0.1 to 5 µM; in experiment [2] (setting [8]), 0.1 to 5 µM; in experiment [3] (setting [9]), more than 30 µM.

Regarding `CC(=O)c1ccc(-c2cc(Cl)c3c(c2)CC(CNC(=O)/C=C(\C)c2cccnc2)O3)s1` (stereo not drawn) [Compound 283, (E)-N-((5-(5-acetylthiophen-2-yl)-7-chloro-2,3-dihydrobenzofuran-2-yl)methyl)-3-(pyridin-3-yl)but-2-enamide], the values for the concentration for half-maximal inhibition (IC50) in experiment [1] (setting [7]), in experiment [2] (setting [8]) and in experiment [3] (setting [9]) were 5 to 30 µM, 5 to 30 µM and more than 30 µM, respectively.

For the compound `CC(=O)c1ccc(-c2cc(Cl)c3c(c2)CC(CNC(=O)/C=C/c2c(C)nn(-c4ccc(F)cc4)c2Cl)O3)s1` (stereo not drawn) [Compound 284, (E)-N-((5-(5-acetylthiophen-2-yl)-7-chloro-2,3-dihydrobenzofuran-2-yl)methyl)-3-(5-chloro-1-(4-fluorophenyl)-3-methyl-1H-pyrazol-4-yl)acrylamide], the IC50 in experiment [1] (setting [7]), in experiment [2] (setting [8]) and in experiment [3] (setting [9]) was more than 30 µM in each case.

With `CC(=O)c1ccc(-c2cc(Cl)c3c(c2)CC(CNC(=O)/C=C/c2cc(C)n(-c4nccs4)c2C)O3)s1` (stereo not drawn) [Compound 285, (E)-N-((5-(5-Acetylthiophen-2-yl)-7-chloro-2,3-dihydrobenzofuran-2-yl)methyl)-3-(2,5-dimethyl-1-(thiazol-2-yl)-1H-pyrrol-3-yl)acrylamide], the IC50 in experiment [1] (setting [7]), in experiment [2] (setting [8]) and in experiment [3] (setting [9]) was more than 30 µM throughout.

With `CC(=O)c1ccc(-c2cc(Cl)c3c(c2)CC(CNC(=O)/C(C#N)=C/c2ccoc2)O3)s1` (stereo not drawn) [Compound 286, (E)-N-((5-(5-acetylthiophen-2-yl)-7-chloro-2,3-dihydrobenzofuran-2-yl)methyl)-2-cyano-3-(furan-3-yl) acrylamide], the 50% inhibitory concentration (IC50) in experiment [1] (MS751, read-out: MTT Assay IC50, MS751) was 5 to 30 µM; in experiment [2] (Z-138, read-out: MTT Assay IC50, Z138), 5 to 30 µM; in experiment [3] (NIH3T3, read-out: MTT Assay IC50, 3T3), more than 30 µM.

For `CC(=O)c1ccc(-c2cc(Cl)c3c(c2)CC(CNC(=O)/C=C/c2c(C)nn4c(C(F)(F)F)ccnc24)O3)s1` (stereo not drawn) [Compound 287, (E)-N-((5-(5-acetylthiophen-2-yl)-7-chloro-2,3-dihydrobenzofuran-2-yl)methyl)-3-(2-methyl-7-(trifluoromethyl)pyrazolo[1,5-a]pyrimidin-3-yl) acryl amide], the IC50 in experiment [1] (setting [7]), in experiment [2] (setting [8]) and in experiment [3] (setting [9]) was more than 30 µM in each case.

For `CC(=O)c1ccc(-c2cc(Cl)c3c(c2)CC(CNC(=O)/C=C/c2cc(C)n(-c4cc(C)on4)c2C)O3)s1` (stereo not drawn) [Compound 288, (E)-N-((5-(5-acetylthiophen-2-yl)-7-chloro-2,3-dihydrobenzofuran-2-yl)methyl)-3-(2,5-dimethyl-1-(5-methylisoxazol-3-yl)-1H-pyrrol-3-yl)acrylamide], the 50% inhibitory concentration (IC50) in experiment [1] (setting [7]), in experiment [2] (setting [8]) and in experiment [3] (setting [9]) was more than 30 µM throughout.

In the case of `CC(=O)c1ccc(-c2cc(Cl)c3c(c2)CC(CNC(=O)/C=C/c2cc4cnn(C(C)C)c4[nH]c2=O)O3)s1` (stereo not drawn) [Compound 289, (E)-N-((5-(5-acetylthiophen-2-yl)-7-chloro-2,3-dihydrobenzofuran-2-yl)methyl)-3-(1-isopropyl-6-oxo-6,7-dihydro-1H-pyrazolo[3,4-b]pyridin-5-yl)acrylamide], the results for the half-inhibitory concentration (IC50) in experiment [1] (setting [7]), in experiment [2] (setting [8]) and in experiment [3] (setting [9]) were 5 to 30 µM, 0.1 to 5 µM and more than 30 µM, respectively.

Regarding `CC(=O)c1ccc(-c2cc(Cl)c3c(c2)CC(CNC(=O)/C=C/c2nc4ccccc4o2)O3)s1` (stereo not drawn) [Compound 290, (E)-N-((5-(5-acetylthiophen-2-yl)-7-chloro-2,3-dihydrobenzofuran-2-yl)methyl)-3-(benzo[d]oxazol-2-yl)acrylamide], the IC50 in experiment [1] (setting [7]), in experiment [2] (setting [8]) and in experiment [3] (setting [9]) was more than 30 µM each time.

For the compound `CC(=O)c1ccc(-c2cc(Cl)c3c(c2)CC(CNC(=O)/C=C/c2sc4ccccc4c2Cl)O3)s1` (stereo not drawn) [Compound 291, (E)-N-((5-(5-acetylthiophen-2-yl)-7-chloro-2,3-dihydrobenzofuran-2-yl)methyl)-3-(3-chlorobenzo[b]thiophen-2-yl)acrylamide], the IC50 in experiment [1] (setting [7]), in experiment [2] (setting [8]) and in experiment [3] (setting [9]) was more than 30 µM in each case.

In the case of `CC(=O)c1ccc(-c2ccc3c(c2)CC(CNC(=O)/C=C/c2cccnc2)O3)s1` (stereo not drawn) [Compound 292, (E)-N-((5-(5-acetylthiophen-2-yl)-2,3-dihydrobenzofuran-2-yl)methyl)-3-(pyridin-3-yl)acrylamide], the half-inhibitory concentration (IC50) in experiment [1] (setting [7]), in experiment [2] (setting [8]) and in experiment [3] (setting [9]) was 0.1 to 5 µM throughout.

`CC(=O)c1ccc(-c2cc(Cl)c3c(c2)CC(CNC(=O)/C=C/c2ccno2)O3)s1` (stereo not drawn) [Compound 293, (E)-N-((5-(5-acetylthiophen-2-yl)-7-chloro-2,3-dihydrobenzofuran-2-yl)methyl)-3-(isoxazol-5-yl)acrylamide]: the half-maximal inhibitory concentration (IC50) in experiment [1] (setting [7]), in experiment [2] (setting [8]) and in experiment [3] (setting [9]) was more than 30 µM throughout.

As to `CNc1ccc(/C=C/C(=O)NCC2Cc3cc(-c4ccc(C(C)=O)s4)cc(Cl)c3O2)cn1` (stereo not drawn) [Compound 294, (E)-N-((5-(5-acetylthiophen-2-yl)-7-chloro-2,3-dihydrobenzofuran-2-yl)methyl)-3-(6-(methylamino)pyridin-3-yl)acrylamide], the half-maximal inhibitory concentration (IC50) in experiment [1] (setting [7]) fell in the range of 0.1 to 5 µM; in experiment [2] (setting [8]), 0.1 to 5 µM; in experiment [3] (setting [9]), 5 to 30 µM.

With `CC(=O)c1ccc(-c2cc(Cl)c3c(c2)CC(CNC(=O)/C=C/c2ccc(N(C)C)nc2)O3)s1` (stereo not drawn) [Compound 295, (E)-N-((5-(5-acetylthiophen-2-yl)-7-chloro-2,3-dihydrobenzofuran-2-yl)methyl)-3-(6-(dimethylamino)pyridin-3-yl)acrylamide], the IC50 in experiment [1] (setting [7]), in experiment [2] (setting [8]) and in experiment [3] (setting [9]) was more than 30 µM throughout.

A word on the IC50: it is the concentration at which inhibition is half-maximal.
